Measured values from ChEMBL document CHEMBL1201862, “PubChem BioAssay data set” (2004).
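Tested at 5 concentrations; 48 h exposure; 96-well plates; endpoints linearly interpolated, else capped at highest concentration. The concentration for 50% growth inhibition is given as GI50.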 The source made the active and inactive calls. Cut-off read from the data, not from the text of the source: active = GI50 up to about 1.1 µM and inactive = higher.

Tests used:
Experiment in all cases: NCI anticancer screen, dose series, 48 h
786-0 = tested on: 786-0
A498 = tested on: A498
A549 = tested on: A549
ACHN = tested on: ACHN
BT-549 = tested on: BT-549
CAKI-1 = tested on: CAKI-1
CCRF-CEM = tested on: CCRF-CEM
COLO 205 = tested on: COLO 205
DU-145 = tested on: DU-145
HCC 2998 = tested on: HCC 2998
HCT-116 = tested on: HCT-116
HCT-15 = tested on: HCT-15
HL-60 = tested on: HL-60
HOP-62 = tested on: HOP-62
HOP-92 = tested on: HOP-92
HT-29 = tested on: HT-29
Hs-578T = tested on: Hs-578T
IGROV-1 = tested on: IGROV-1
LOX IMVI = tested on: LOX IMVI
MCF7 = tested on: MCF7
MDA-MB-435 = tested on: MDA-MB-435
Malme-3M = tested on: Malme-3M
NCI-H226 = tested on: NCI-H226
NCI-H23 = tested on: NCI-H23
NCI-H460 = tested on: NCI-H460
NCI-H522 = tested on: NCI-H522
NCI/ADR-RES = tested on: NCI/ADR-RES
OVCAR-3 = tested on: OVCAR-3
OVCAR-4 = tested on: OVCAR-4
OVCAR-5 = tested on: OVCAR-5
OVCAR-8 = tested on: OVCAR-8
PC-3 = tested on: PC-3
RXF 393 = tested on: RXF 393
SF-268 = tested on: SF-268
SF-295 = tested on: SF-295
SF-539 = tested on: SF-539
SK-MEL-28 = tested on: SK-MEL-28
SK-MEL-2 = tested on: SK-MEL-2
SK-MEL-5 = tested on: SK-MEL-5
SK-OV-3 = tested on: SK-OV-3
SN12C = tested on: SN12C
SNB-19 = tested on: SNB-19
SNB-75 = tested on: SNB-75
SR = tested on: SR
SW-620 = tested on: SW-620
TK-10 = tested on: TK-10
U-251 = tested on: U-251
UACC-257 = tested on: UACC-257
UACC-62 = tested on: UACC-62
UO-31 = tested on: UO-31
EKVX = tested on: EKVX
KM12 = tested on: KM12
M14 = tested on: M14
MDA-MB-231 = tested on: MDA-MB-231
MDA-N = tested on: MDA-N
MOLT-4 = tested on: MOLT-4
RPMI-8226 = tested on: RPMI-8226
T47D = tested on: T47D
K562 = tested on: K562

Measured: GI50

Cc1c2c(n3c(nc4ccccc43)c1C#N)N(c1ccc(F)cc1)CC2
inactive: 786-0 > 100 µM | A498 > 100 µM | A549 > 100 µM | ACHN > 100 µM | BT-549 > 100 µM | CAKI-1 > 100 µM | CCRF-CEM > 100 µM | COLO 205 > 100 µM | DU-145 > 100 µM | HCC 2998 > 100 µM | HCT-116 > 100 µM | HL-60 > 100 µM | HOP-62 > 100 µM | HOP-92 > 100 µM | HT-29 > 100 µM | Hs-578T 71.1 µM | IGROV-1 > 100 µM | LOX IMVI > 100 µM | MCF7 > 100 µM | MDA-MB-435 > 100 µM | Malme-3M > 100 µM | NCI-H226 > 100 µM | NCI-H23 > 100 µM | NCI-H460 > 100 µM | NCI-H522 > 100 µM | NCI/ADR-RES > 100 µM | OVCAR-3 > 100 µM | OVCAR-4 41.4 µM | OVCAR-5 > 100 µM | OVCAR-8 > 100 µM | PC-3 > 100 µM | RXF 393 > 100 µM | SF-268 > 100 µM | SF-295 > 100 µM | SF-539 > 100 µM | SK-MEL-28 > 100 µM | SK-MEL-2 > 100 µM | SK-MEL-5 > 100 µM | SK-OV-3 74.5 µM | SN12C > 100 µM | SNB-19 > 100 µM | SNB-75 > 100 µM | SR > 100 µM | SW-620 > 100 µM | TK-10 > 100 µM | U-251 > 100 µM | UACC-257 > 100 µM | UACC-62 > 100 µM | UO-31 > 100 µM
> 100 µM: HCT-15

N#CC(c1nc2ccccc2s1)c1ncnc(Cl)c1[N+](=O)[O-] (stereo unspecified)
active: CCRF-CEM 0.361 µM
inactive: 786-0 20.1 µM | A498 > 100 µM | A549 36.3 µM | ACHN 37.6 µM | BT-549 22.9 µM | CAKI-1 25.2 µM | COLO 205 15.5 µM | DU-145 34.1 µM | EKVX 23.2 µM | HCT-116 12.6 µM | HOP-62 28.8 µM | HOP-92 17.3 µM | HT-29 17.4 µM | IGROV-1 14.6 µM | KM12 32.5 µM | LOX IMVI 17.3 µM | M14 17.5 µM | MDA-MB-231 30.8 µM | MDA-MB-435 29.2 µM | MDA-N 18.2 µM | MOLT-4 31.8 µM | Malme-3M 19.4 µM | NCI-H226 20.2 µM | NCI-H23 16.5 µM | NCI-H460 20.3 µM | NCI-H522 18.9 µM | NCI/ADR-RES 17.8 µM | OVCAR-3 20.1 µM | OVCAR-4 27.7 µM | OVCAR-5 24.3 µM | OVCAR-8 18.5 µM | RPMI-8226 28.1 µM | RXF 393 25.5 µM | SF-268 17.5 µM | SF-295 > 100 µM | SF-539 30.3 µM | SK-MEL-28 19.9 µM | SK-MEL-5 15.8 µM | SK-OV-3 37.8 µM | SN12C 18.2 µM | SNB-19 32.1 µM | SNB-75 22.9 µM | SW-620 19.3 µM | T47D 29.1 µM | TK-10 34.3 µM | U-251 32.7 µM | UACC-257 20.6 µM | UO-31 27.9 µM
17.9 µM: HCT-15

CC(C)[C@@H]1NC(=O)[C@@H]2N=C(O[C@H]2C)[C@H](C(C)C)NC(=O)C2N=C1O[C@H]2C
inactive: 786-0 > 100 µM | A498 > 100 µM | A549 > 100 µM | ACHN > 100 µM | CAKI-1 > 100 µM | CCRF-CEM > 100 µM | COLO 205 > 100 µM | DU-145 > 100 µM | EKVX > 100 µM | HCC 2998 > 100 µM | HCT-116 > 100 µM | HL-60 > 100 µM | HOP-62 > 100 µM | HOP-92 94.4 µM | HT-29 > 100 µM | Hs-578T > 100 µM | IGROV-1 > 100 µM | K562 > 100 µM | KM12 > 100 µM | LOX IMVI > 100 µM | M14 > 100 µM | MCF7 > 100 µM | MDA-MB-231 > 100 µM | MDA-MB-435 > 100 µM | MDA-N > 100 µM | MOLT-4 > 100 µM | Malme-3M > 100 µM | NCI-H226 > 100 µM | NCI-H23 > 100 µM | NCI-H460 > 100 µM | NCI-H522 > 100 µM | NCI/ADR-RES > 100 µM | OVCAR-3 > 100 µM | OVCAR-4 > 100 µM | OVCAR-5 > 100 µM | OVCAR-8 > 100 µM | PC-3 > 100 µM | RPMI-8226 > 100 µM | RXF 393 > 100 µM | SF-268 > 100 µM | SF-295 > 100 µM | SF-539 > 100 µM | SK-MEL-28 > 100 µM | SK-MEL-2 > 100 µM | SK-MEL-5 > 100 µM | SN12C > 100 µM | SNB-19 > 100 µM | SNB-75 > 100 µM | SR > 100 µM | SW-620 > 100 µM | T47D > 100 µM | TK-10 > 100 µM | UACC-257 > 100 µM | UACC-62 > 100 µM | UO-31 > 100 µM
> 100 µM: HCT-15
